In patent US20150336943A1, “NOVEL BENZODIOXANE-PIPERIDINE DERIVATIVES AND THEIR THERAPEUTIC APPLICATIONS FOR TREATING NEUROPSYCHIATRIC DISORDERS” (PIERRE FABRE MEDICAMENT, priority 2013, published 2015):

How the values were obtained:
[1] = system: scopolamine-induced amnesia; test: Passive avoidance memory test (scopolamine-induced amnesia) in rats; assay type: in vivo; conditions: for Latency to enter the dark compartment: scopolamine, measured 48 h after training, carrier 24±12
Method: Example 31 was evaluated in rats in a memory test, the passive avoidance test (Chopin P, Briley M. Effects of four non-cholinergic cognitive enhancers in comparison with tacrine and galanthamine on scopolamine-induced amnesia in rats, Psychopharmacology (Berl), 1992; 106:26-30). This test consists of teaching a rat not to enter a dark compartment (its naturally preferred place) where it had previously received an electric shock (0.8 mA). The animal's reticence (the time lapse or “latency” to enter the dark compartment) measured 48 h after its training is considered as an index of its explicit-declarative memory. Latency greatly […] when an amnesic product such as scopolamine is administered shortly after receiving the first shock. A product with promnesic properties opposes the effects of scopolamine.

dopaminergic receptor D2 = molecular target: T1, dopaminergic receptor D2 (Homo sapiens, UniProt P14416); test: Inhibition constants (Ki) for dopaminergic receptor D2 in recombinant cells; assay type: binding; conditions: read-out: pKi D2 (converted)
T1 construct: expressed in transfected cells; host or cells: recombinant human cells (so in the source)
T1 sequence (P14416 whole entry): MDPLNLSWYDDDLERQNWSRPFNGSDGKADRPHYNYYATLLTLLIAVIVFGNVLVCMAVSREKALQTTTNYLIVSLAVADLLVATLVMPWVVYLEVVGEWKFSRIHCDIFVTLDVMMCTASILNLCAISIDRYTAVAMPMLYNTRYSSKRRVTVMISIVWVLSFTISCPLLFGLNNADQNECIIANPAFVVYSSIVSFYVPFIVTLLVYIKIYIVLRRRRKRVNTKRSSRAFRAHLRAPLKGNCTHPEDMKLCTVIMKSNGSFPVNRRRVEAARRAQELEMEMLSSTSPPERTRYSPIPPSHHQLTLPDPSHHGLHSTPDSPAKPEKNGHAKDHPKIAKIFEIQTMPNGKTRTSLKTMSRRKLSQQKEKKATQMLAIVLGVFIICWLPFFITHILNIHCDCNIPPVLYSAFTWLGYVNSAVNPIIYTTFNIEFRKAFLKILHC
Method: (§1) Compounds of formula 1 have been evaluated in vitro as ligands for dopaminergic and noradrenergic receptors and modulators of the activity of these receptors according to the invention in recombinant human cells expressing the receptors. The inhibition constants (Ki) were measured for dopaminergic receptors D2 and D3, and for adrenergic receptors alpha2A, alpha2B and alpha2C, according to the described methods (Newman-Tancredi A, Assie M B, Martel J C, Cosi C, Slot L B, Palmier C, Rauly-Lestienne I, Colpaert F, Vacher B, Cussac D. F15063, a potential antipsychotic with D2/D3 antagonist, 5-HT 1A agonist and D4 partial agonist properties. I. In vitro receptor affinity and efficacy profile. Br J Pharmacol., 2007, 151:237-252). The intrinsic activity of the products for the D2 receptor was measured (Bruins Slot L A, De Vries L, Newman-Tancredi A, Cussac D. Differential profile of antipsychotics at serotonin 5-HT1A and dopamine D2S receptors coupled to extracellular signal-regulated kinase. Eur J Pharmacol, 2006, 534; 63-70. The results obtained for some of these compounds are presented in the following table.

dopaminergic receptor D3 = molecular target: T2, dopaminergic receptor D3 (Homo sapiens, UniProt P35462); test: Inhibition constants (Ki) for dopaminergic receptor D3 in recombinant cells; assay type: binding; conditions: read-out: pKi D3 (converted)
T2 construct: expressed in transfected cells; host or cells: recombinant human cells (so in the source)
T2 sequence (P35462 whole entry): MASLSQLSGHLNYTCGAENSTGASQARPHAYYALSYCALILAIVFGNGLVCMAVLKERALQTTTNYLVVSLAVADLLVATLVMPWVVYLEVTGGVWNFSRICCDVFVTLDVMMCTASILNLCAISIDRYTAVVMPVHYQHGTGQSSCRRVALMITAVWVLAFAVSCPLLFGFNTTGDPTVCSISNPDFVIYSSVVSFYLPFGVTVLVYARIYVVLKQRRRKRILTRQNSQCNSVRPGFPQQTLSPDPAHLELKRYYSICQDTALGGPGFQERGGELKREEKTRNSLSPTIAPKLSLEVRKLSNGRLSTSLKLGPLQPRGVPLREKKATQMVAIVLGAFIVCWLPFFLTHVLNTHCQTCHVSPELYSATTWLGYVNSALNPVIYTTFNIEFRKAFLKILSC
Method: as §1

[2] = molecular target: T3, adrenergic receptor alpha2A (Homo sapiens, UniProt P08913); test: Inhibition constants (Ki) for adrenergic receptor alpha2A in recombinant cells; assay type: binding; conditions: read-out: pKi α2A (converted)
T3 construct: expressed in transfected cells; host or cells: recombinant human cells (so in the source)
T3 sequence (P08913 1-465): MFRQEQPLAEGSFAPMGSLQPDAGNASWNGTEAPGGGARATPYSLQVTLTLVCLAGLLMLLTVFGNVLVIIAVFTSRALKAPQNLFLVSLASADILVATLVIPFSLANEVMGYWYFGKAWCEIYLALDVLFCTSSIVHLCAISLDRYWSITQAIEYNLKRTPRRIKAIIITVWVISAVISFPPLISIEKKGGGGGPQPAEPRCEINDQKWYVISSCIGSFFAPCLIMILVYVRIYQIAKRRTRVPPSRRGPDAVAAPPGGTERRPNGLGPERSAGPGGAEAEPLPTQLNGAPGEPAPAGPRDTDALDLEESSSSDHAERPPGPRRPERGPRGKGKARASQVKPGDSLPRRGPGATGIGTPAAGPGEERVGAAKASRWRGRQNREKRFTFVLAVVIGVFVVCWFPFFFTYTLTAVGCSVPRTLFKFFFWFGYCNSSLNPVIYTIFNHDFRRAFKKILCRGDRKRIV
Method: as §1

[3] = molecular target: T4, adrenergic receptor alpha2B (Homo sapiens, UniProt P18089); test: Inhibition constants (Ki) for adrenergic receptor alpha2B in recombinant cells; assay type: binding; conditions: read-out: pKi α2B (converted)
T4 construct: expressed in transfected cells; host or cells: recombinant human cells (so in the source)
T4 sequence (P18089 1-450): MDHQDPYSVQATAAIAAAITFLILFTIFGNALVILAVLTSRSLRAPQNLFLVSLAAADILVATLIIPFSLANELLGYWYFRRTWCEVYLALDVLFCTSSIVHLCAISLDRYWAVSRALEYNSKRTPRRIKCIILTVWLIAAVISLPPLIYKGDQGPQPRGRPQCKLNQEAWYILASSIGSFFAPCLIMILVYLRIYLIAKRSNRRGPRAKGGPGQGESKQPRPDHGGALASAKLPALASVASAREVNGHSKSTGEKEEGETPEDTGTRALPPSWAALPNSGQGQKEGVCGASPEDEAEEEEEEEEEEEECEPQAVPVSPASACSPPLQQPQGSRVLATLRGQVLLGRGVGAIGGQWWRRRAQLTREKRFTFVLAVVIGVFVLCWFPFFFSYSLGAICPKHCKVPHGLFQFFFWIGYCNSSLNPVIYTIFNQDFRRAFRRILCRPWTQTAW
Method: as §1

[4] = molecular target: T5, adrenergic receptor alpha2C (Homo sapiens, UniProt P18825); test: Inhibition constants (Ki) for adrenergic receptor alpha2C in recombinant cells; assay type: binding; conditions: read-out: pKi α2C (converted)
T5 construct: expressed in transfected cells; host or cells: recombinant human cells (so in the source)
T5 sequence (P18825 1-462): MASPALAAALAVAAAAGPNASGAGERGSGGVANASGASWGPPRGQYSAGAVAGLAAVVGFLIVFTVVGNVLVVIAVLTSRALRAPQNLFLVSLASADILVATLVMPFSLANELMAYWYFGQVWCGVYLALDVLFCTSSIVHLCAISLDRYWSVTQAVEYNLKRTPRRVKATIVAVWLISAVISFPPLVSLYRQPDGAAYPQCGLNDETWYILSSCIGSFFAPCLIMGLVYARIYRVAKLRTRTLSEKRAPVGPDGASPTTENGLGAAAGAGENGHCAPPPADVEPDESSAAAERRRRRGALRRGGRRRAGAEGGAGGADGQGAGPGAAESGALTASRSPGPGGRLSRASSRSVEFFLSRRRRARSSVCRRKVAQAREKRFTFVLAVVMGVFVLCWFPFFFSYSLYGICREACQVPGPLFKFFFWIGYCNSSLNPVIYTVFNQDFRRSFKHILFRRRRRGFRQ
Method: as §1

D2 receptor = molecular target: T6, D2 receptor (Homo sapiens, UniProt P14416); test: Intrinsic (agonist) activity at the D2 receptor; assay type: cell-based
T6 construct: expressed in transfected cells; host or cells: recombinant human cells (so in the source)
T6 sequence (P14416 1-414 isoform P14416-2): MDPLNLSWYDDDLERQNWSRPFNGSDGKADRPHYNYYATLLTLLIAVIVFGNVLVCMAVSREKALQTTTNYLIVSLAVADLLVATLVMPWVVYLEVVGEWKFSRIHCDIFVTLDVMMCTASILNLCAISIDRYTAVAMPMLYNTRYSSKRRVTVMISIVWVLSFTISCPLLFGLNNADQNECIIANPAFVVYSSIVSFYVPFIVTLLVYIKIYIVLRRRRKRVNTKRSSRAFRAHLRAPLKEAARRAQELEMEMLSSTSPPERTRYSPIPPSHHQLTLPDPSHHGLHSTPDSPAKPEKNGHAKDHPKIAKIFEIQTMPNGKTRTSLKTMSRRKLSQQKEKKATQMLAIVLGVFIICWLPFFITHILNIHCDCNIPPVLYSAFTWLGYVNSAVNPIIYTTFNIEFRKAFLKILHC
Method: The prior art mentions, for benzodioxane-piperidine derivatives bearing an amide, a urea or an imidazolidinone, as non-selective alpha2-antagonists (WO 97/28157, WO 98/02435); some of these products also have a weak affinity for the D2 dopaminergic receptor (T. Imbert, J. Med. Chem, 2000, 43: 3653-3664). […] Activity as a D2 and D3 receptor agonist was determined according to the described methods (Bruins Slot L A, De Vries L, Newman-Tancredi A, Cussac D. Differential profile of antipsychotics at serotonin 5-HT1A and dopamine D2S receptors coupled to extracellular signal-regulated kinase. Eur J Pharmacol, 2006, 534; 63-70; Bruins Slot L A, Palmier C, Tardif S, Cussac D. Action of novel antipsychotics at human dopamine D3 receptors coupled to G protein and ERK1/2 activation. Neuropharmacology, 2007, 53: 232-241) for the following compounds, such as described in WO 97/28157 and WO 98/02435; • 1-benzyl-3-(2-(1-((2,3-dihydrobenzo[b][1,4]dioxin-2-yl)methyl)piperidin-4-yl)ethyl)imidazolidin-2-one • 1-(2-(1-((2,3-dihydrobenzo[b][1,4]dioxin-2-yl)methyl)piperidin-4-yl)ethyl)-3-methylimidazolidin-2-one • 1-(2,6-dichlorophenyl)-3-(2-(1-((2,3-dihydrobenzo[b][1,4]dioxin-2-yl)methyl)piperidin-4-yl)ethyl)imidazolidin-2-one • 1-(2-(1-((2,3-dihydrobenzo[b][1,4]dioxin-2-yl)methyl)piperidin-4-yl)ethyl)-3-(pyridin-4-yl)imidazolidin-2-one • 3-(2-(1-((2,3-dihydrobenzo[b][1,4]dioxin-2-yl)methyl)piperidin-4-yl)ethyl)-1-phenylimidazolidine-2,4-dione • (S)—N-(2-(1-((2,3-dihydrobenzo[b][1,4]dioxin-2-yl)methyl)piperidin-4-yl)ethyl)-[1,1′-biphenyl]-4-carboxamide • (S)—N-(2-(1-((2,3-dihydrobenzo[b][1,4]dioxin-2-yl)methyl)piperidin-4-yl)ethyl)-4-(1H-pyrrol-1-yl)benzamide • (S)—N-(2-(1-((2,3-dihydrobenzo[b][1,4]dioxin-2-yl)methyl)piperidin-4-yl)ethyl)-4-(pyridin-4-yl)benzamide • (S)—N-(2-(1-((2,3-dihydrobenzo[b][1,4]dioxin-2-yl)methyl)piperidin-4-yl)ethyl)-4-(pyridin-3-yl)benzamide • (S)—N-(2-(1-((2,3-dihydrobenzo[b][1,4]dioxin-2-yl)methyl)piperidin-4-yl)ethyl)-9-oxo-9H-fluorene-1-carboxamide.
as §1

[5] = system: MK-801-induced hyperactivity; test: MK-801-induced hyperactivity test in mice; assay type: in vivo; conditions: Mus musculus

| Structure (SMILES) | Latency to enter the dark compartment ([1]; dose 0.63 mg/kg) [s] | Latency to enter the dark compartment ([1]; dose 2.5 mg/kg) [s] | Ki (dopaminergic receptor D2) [nM] | Ki (dopaminergic receptor D3) [nM] | Ki [2] [nM] | Ki [3] [nM] | Ki [4] [nM] | I.A.: Intrinsic activity on receptor D2 in vitro (D2 receptor) | ED50 [5] [mg/kg] | Effect on scopolamine-induced amnesia in the passive avoidance test ([1]; doses of 0.16, 0.63, 2.5 and 10 mg/kg) |
| --- | --- | --- | --- | --- | --- | --- | --- | --- | --- | --- |
| O=C1OCCN1CCC1CCN(C[C@H]2COc3ccccc3O2)CC1 [Example 1, (S)-3-(2-(1-((2,3-dihydrobenzo[b][1,4]dioxin-2-yl)methyl)piperidin-4-yl)ethyl)oxazolidin-2-one] | 60 ± 21 | 78 ± 22 |  |  |  |  |  |  |  |  |
| Cc1ccc2c(c1)O[C@@H](CN1CCC(CCN3C(=O)OC[C@@H]3Cc3ccccc3)CC1)CO2 [Example 31, (S)-4-benzyl-3-(2-(1-(((S)-7-methyl-2,3-dihydrobenzo[b][1,4]dioxin-2-yl)methyl)piperidin-4-yl)ethyl)oxazolidin-2-one] |  |  | 1.17 | 0.525 | 5.13 | 2.95 | 1 | 0 percentage of that of dopamine | 2.1 | opposed to the effect of scopolamine |
| O=C1COCCN1CCC1CCN(C[C@H]2COc3c(F)cc(Cl)cc3O2)CC1 [Example 94, (S)-4-(2-(1-((7-chloro-5-fluoro-2,3-dihydrobenzo[b][1,4]dioxin-2-yl)methyl)piperidin-4-yl)ethyl)morpholin-3-one] |  |  | 1.66 | 0.347 | 5.37 | 4.47 | 0.617 | 0 percentage of that of dopamine | 0.19 |  |
